From patent US12384777B2 (Tay Therapeutics Limited, priority 2019, dated 2025) come the findings set out here.

In one series the target is BRD2(1) (Homo sapiens (Human), UniProt P25440). The series is described as follows: Bromodomain binding assay, BRD2(1). The following applies: single point, screened at 30 times Kd; lower numbers indicate stronger hits. As for the experimental part:
(§1) T7 phage strains displaying bromodomains were grown in parallel in 24-well blocks in an E. coli host derived from the BL21 strain. E. coli were grown to log-phase and infected with T7 phage from a frozen stock (multiplicity of infection=0.4) and incubated with shaking at 32° C. until lysis (90-150 min). The lysates were centrifuged (5,000×g) and filtered (0.2 μm) to remove cell debris. Streptavidin-coated magnetic beads were treated with biotinylated small molecule or acetylated peptide ligands for 30 min at RT to generate affinity resins for bromodomain assays. The ligated beads were blocked with excess biotin and washed with blocking buffer (SeaBlock (Pierce), 1% BSA, 0.05% Tween 20, 1 mM DTT) to remove unbound ligand and to reduce non-specific phage binding. Binding reactions were assembled by combining bromodomains, ligated affinity beads, and test compounds in 1× binding buffer (16% SeaBlock, 0.32×PBS, 0.02% BSA, 0.04% Tween 20, 0.004% Sodium azide, 7.9 mM DTT). Test compounds were prepared as 1000× stocks in 100% DMSO and subsequently diluted 1:25 in MEG. The compounds were then diluted directly into the assays such that the final concentrations of DMSO and MEG were 0.1% and 2.4%, respectively. All reactions were performed in polypropylene 384-well plates in a final volume of 0.02 ml. The assay plates were incubated at RT with shaking for 1 hr and the affinity beads were washed with wash buffer (1×PBS, 0.05% Tween 20). The beads were then re-suspended in elution buffer (1×PBS, 0.05% Tween 20, 2 μM non-biotinylated affinity ligand) and incubated at RT with shaking for 30 min. The bromodomain concentration in the eluates was measured by quantitative polymerase chain reaction (qPCR).
(§2) An 11-point 3-fold serial dilution of each test compound was prepared in 100% DMSO at 1000× final test concentration. […] Most dissociation constants were determined using a compound top concentration=10,000 nM. If the initial dissociation constant determined was <0.169 nM (the lowest concentration tested), the measurement was repeated with a serial dilution starting at a lower top concentration. […]

The next series concerns the target BRD2(2) (Homo sapiens (Human), UniProt P25440). The series is described as follows: Bromodomain binding assay, BRD2(2). The following applies: single point, screened at 30 times Kd; lower numbers indicate stronger hits. As for the experimental part: as §1, §2
Series [1] relates to healthy human skin stimulated by a Th2 or Th17 biasing cocktail. As to the kind of experiment: Th2 and Th17 stimulation of human skin explants, IL-4 / IL-17A mRNA. The series is classed as cell-based. As for the experimental part: • 1. Freshly excised healthy human skin tissue from abdominoplasties is defatted, cleaned and sectioned into 7 mm biopsies. • 2. The biopsies are placed in Transwell® inserts with the epidermis apical and exposed to air and the dermis submerged in media in the basal chamber. • 3. The biopsies are pre-treated overnight at 37° C., 5% CO2 with different compounds and controls added to the media in the basal chamber. • 4. The next day, contents of the basal chamber is replaced with fresh media containing the test compound and a stimulation cocktail for either Th2 inflammation (proprietary Medpharm cocktail) or Th17 inflammation (mix of antibodies against CD3, CD28, IL-4, IFNγ and recombinant IL-1β, IL-6, IL-21, TGF-β). • 5. The biopsies are incubated at 37° C., 5% CO2 for a further 24 hrs. • 6. After harvesting, the biopsies are cut in half, and one half is homogenized and used for RNA extraction by standard methods. IL-4 or IL-17A is assessed by RT-qPCR.

The target in the next series is BRDT(1) (Homo sapiens (Human), UniProt Q58F21). The series is described as follows: Bromodomain binding assay, BRDT(1). The following applies: single point, screened at 30 times Kd; lower numbers indicate stronger hits. As for the experimental part: as §1, §2
Series [2] in a line: Skin penetration (Franz cell). To be noted: epidermis of pig/human skin after 24 hour exposure. The series is classed as in vitro ADME. As to the method:
A dosing solution was prepared for each test compound at a saturated concentration in an appropriate formulation mixture. The positive control, caffeine (final concentration 10 mg/mL), was prepared in 50:50 transcutol/water. Warm, degassed phosphate buffered saline (PBS) was applied to the receiving chambers of each jacketed Franz cell (1 cm containing a magnetic stirring bar). Pig/Human skin was removed from −80° C. storage and cut to size (˜2 cm^2) using a scalpel. The skin was then allowed to thaw at RT before being placed into warmed PBS for 10 min. Each skin piece was then dried before being placed onto the orifice of the Franz cell, removing any bubbles that occurred. […]
A calibration line was prepared in PBS (5000 ng/mL-0.2 ng/mL). […] All samples were quantified using UPLC-MS/MS (Waters Xevo TQ-S).
The concentration of compound present at each time point was corrected for the addition of fresh buffer. By plotting the concentration of compound vs time, the J flux and T lag could be calculated (values for caffeine should be approximately J Flux: 0.9-1.1 μg/cm/hr, Tlag: 244-257 min, ˜20% of dose present in receiving chamber after 24 hrs, mass balance 70-90%).
Skin extraction samples were corrected for dilution factor and volume of extraction solution. The quantity of dose measured in skin layers and time point samples were used to measure the mass balance of the experiment.

The target in the next series is BRDT(2) (Homo sapiens (Human), UniProt Q58F21). The series is described as follows: Bromodomain binding assay, BRDT(2). The following applies: single point, screened at 30 times Kd; lower numbers indicate stronger hits. As to the method: as §1, §2

Sequence of BRD2(1) (P25440 74-180): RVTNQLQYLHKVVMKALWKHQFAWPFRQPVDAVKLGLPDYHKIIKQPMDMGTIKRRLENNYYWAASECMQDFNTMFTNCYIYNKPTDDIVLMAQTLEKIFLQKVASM
Sequence of BRD2(2) (P25440 344-453): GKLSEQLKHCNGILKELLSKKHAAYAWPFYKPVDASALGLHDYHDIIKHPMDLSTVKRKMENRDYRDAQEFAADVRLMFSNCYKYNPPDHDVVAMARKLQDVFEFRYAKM

Regarding `Cn1cc(-c2cccc(O)c2Oc2ccccc2)c2cc[nH]c2c1=O` [Example 1, 4-(3-hydroxy-2-phenoxyphenyl)-6-methyl-1,6-dihydro-7H-pyrrolo[2,3-c]pyridin-7-one], the “BRD2(1) % Ctrl” value at BRD2(1) came out at 0 % Ctrl. Besides, the “BRD2(2) % Ctrl” value at BRD2(2) was 0.6 % Ctrl. Besides, in series [1] (2.5 μM, Th2 biasing cocktail), the “% reduction in IL-4 mRNA (IL-4)” value was “+++ (> 75% reduction)”. In addition, the “% reduction in IL-17A mRNA (IL-17)” value in series [1] (2.5 μM, Th17 biasing cocktail) is “+++ (> 75% reduction)”. Also, in series [1] (Th2 or Th17 biasing cocktail), the “reduction of IL-4 or IL-17 levels” value is reported as greater than 50%. The “BRDT(1) % Ctrl” value on BRDT(1) amounted to 0 % Ctrl. Also, the “Epidermal concentration” value in series [2] is 27 µM. Moreover, the “BRDT(2) % Ctrl” value on BRDT(2) came to 3.8 % Ctrl.
